{
  "source": "patent US5312919A",
  "about": "“Photooxidation products and derivatives thereof of merocyanine-540, their preparation and uses” (priority 1992, dated 1994)",
  "format_in_all_cases": "cell-based",
  "key": {"MT-4 cells": {"system": "MT-4 cells", "experiment": "Effect on viability of MT-4 cells", "conditions": "experimental conditions of Table 8", "description": "Cell free human immunodeficiency virus (HIV-1) was either left untreated or treated with indicated doses of Merocil or Merodantoin for one hour at 37° C. and added to MT-4 target cells. After 4 hour incubation at 37° C., the cells were washed three times and further incubated in drug free fresh growth medium (complete RPMI-1640) at 37° C. for 4 days. On day four, 50% of the culture supernatant was replaced with fresh growth medium to prevent cell death due to possible nutrient depletion. The viability of the cell was determined on day 11 by MTT assay. […] The viability of the MT-4 cells was not affected by Merocil or Merodantoin under the experimental conditions described above."}, "8226 (multiple myeloma)": {"system": "8226 (multiple myeloma)", "experiment": "Inhibition of cell proliferation, 8226 (MTT assay)", "conditions": "24 hr.", "description": "(§1) Preactivated MC 540 is abbreviated as pMC 540. […] 52: 831-38 (1990); and T. Mosmann, J. Immulog. Methods 65: 55-63 (1983).\n(§2) Each cell type (1×10^6 cells/ml; in triplicate) was treated with indicated concentrations of merocil or merodantoin. […] The cytotoxicity in vehicle only (cremophor EL) controls was not detectable at highest dose tested."}, "[1]": {"system": "H.S. Sultan (multiple myeloma)", "experiment": "Inhibition of cell proliferation, H.S. Sultan (MTT assay)", "conditions": "24 hr.", "description": "as §1, §2"}, "[2]": {"conditions": "1.56 μg/ml, read-out: % inhibition of cell proliferation"}, "[3]": {"conditions": "3.13 μg/ml, read-out: % inhibition of cell proliferation"}, "[4]": {"conditions": "6.25 μg/ml, read-out: % inhibition of cell proliferation"}, "[5]": {"conditions": "12.5 μg/ml, read-out: % inhibition of cell proliferation"}},
  "data": [
    {"molecule": "CCCCN1C(=O)C(=O)N(CCCC)C1=S", "note": "[Merodantoin, N,N'-Dibutyl-2-thio-4,5-imidazolindion]", "values": [
      {"measurement": "viability of the MT-4 cells", "setting": "MT-4 cells", "result": "not affected"},
      {"measurement": "inhibition at 1.56 µg/mL", "setting": "8226 (multiple myeloma); [2]", "result": 20, "unit": "%"},
      {"measurement": "inhibition at 3.13 µg/mL", "setting": "8226 (multiple myeloma); [3]", "result": 16, "unit": "%"},
      {"measurement": "inhibition at 6.25 µg/mL", "setting": "8226 (multiple myeloma); [4]", "result": 20, "unit": "%"},
      {"measurement": "inhibition at 12.5 µg/mL", "setting": "8226 (multiple myeloma); [5]", "result": 30, "unit": "%"},
      {"measurement": "inhibition at 25 µg/mL", "setting": "8226 (multiple myeloma); 25.0 μg/ml", "result": 46, "unit": "%"},
      {"measurement": "inhibition at 1.56 µg/mL", "setting": "[1]; [2]", "result": 18, "unit": "%"},
      {"measurement": "inhibition at 3.13 µg/mL", "setting": "[1]; [3]", "result": 34, "unit": "%"},
      {"measurement": "inhibition at 6.25 µg/mL", "setting": "[1]; [4]", "result": 54, "unit": "%"},
      {"measurement": "inhibition at 12.5 µg/mL", "setting": "[1]; [5]", "result": 77, "unit": "%"},
      {"measurement": "inhibition at 25 µg/mL", "setting": "[1]; 25.0 μg/ml", "result": 87, "unit": "%"}
    ]}
  ]
}
